# Measurements from publication PMC6906431, “Selective small molecule PARG inhibitor causes replication fork stalling and cancer cell death” (Nature Communications, 2019).
# Key:
# [1] = tested on: A172 glioblastoma cells; assay: Sulforhodamine B (SRB) cytotoxicity assay; conditions: 72 h
# Protocol: Normalized % viabilities are plotted against log concentration. Error bars show the percent coefficient of variation. […] Mann-Whitney test was used to generate the p-value. The DNA spread assay is the representation of two independently repeated experiments. Source Data are provided as a Source Data file.
# Cells were plated in 96-well plates, treated as designated in reduced 5% FBS and fixed with trichloroacetic acid after 72 h, as previously described by[43]. […] Colorimetric or fluorescence analysis was performed in a FlexStation 3, using SoftMax Pro 7.0, Molecular Devices. Normalized graphs were generated with Prism 8 software, non-linear 4-parameter data fitting was performed for IC50 calculation.
# [2] = target: T1, rat PARG (Rattus norvegicus, UniProt Q9QYM2); assay: TR-FRET PAR turnover assay (HTS and dose-response); assay type: biochemical; conditions: for IC50: dose-response, rat PARG 12.5 nM, read-out: Estimated IC50; for TR-FRET: 6.7 μM compound
# T1 construct: The catalytic domain of rat PARG (residues 385–972) was purified as described previously; made in house
# Description: Importantly, PARG enzymatic function can be required for tumorigenesis. Therefore, we sought to identify a selective PARG inhibitor through our robust PARG enzyme kinetic assay, which quantitatively monitors real-time PAR-mediated PARP1-XRCC1 interactions and disassembly in a multi-well format. A strong TR-FRET signal was generated upon assembly of the Tb^3+-chelated XRCC1 (FRET donor) with PARylated PARP1, which incorporates fluorescein-labeled ADP-ribose moieties into PAR chains (FRET acceptor). The addition of PARG caused a time-dependent loss of the TR-FRET signal by reversing PARylation and disassembling the PARP1-XRCC1 complex (Supplementary Fig. 1)[37].
# For a high-throughput screening (HTS) of PARG inhibitors, we developed a high-throughput PARG activity assay using the TR-FRET system (a manuscript describing the details of this assay will be published elsewhere). Briefly, the fluorescein molecule (FITC) was enzymatically incorporated into PARP1 in a reaction containing PARP1C (2 μM), the PARP1 DBD (2 μM), a 24 mer nicked DNA oligo (2 μM), and a mixture of unlabeled NAD^+ (Sigma) and FITC-NAD^+ (Trevigen) substrates (total NAD^+ concentration of 100 μM). After incubation for 1 h at 37 °C, PARylated PARP1 was desalted using a PD-10 desalting column (GE healthcare) in a buffer containing 25 mM Tris-HCl (pH 7.5), 50 mM NaCl, and 0.01% NP-40 and used as the FRET acceptor. The biotin-tagged BRCT1 domain of XRCC1 (BRCT1, 5 nM) was conjugated with an equimolar concentration of Tb^3+-chelated streptavidin (Life Technologies) in TR-FRET assay buffer (FRET donor). […] The reaction was started by the addition of the FRET pair of FITC-labeled PARP1 (42 nM) and Tb^3+-BRCT1 (5 nM). The TR-FRET signal was subsequently monitored for 60 min.
# Small molecule inhibitors of PARG were identified by high-throughput screening (HTS) using the TR-FRET PAR turnover assay. Compounds (final concentration of 6.7 μM) from the NCI Diversity Set II library (1990 compounds) were pre dispensed into black polystyrene 384-well plates (Corning) using a Hummingbird liquid handler (Digilab). Then, 10 μl of rat PARG^385–972 (12.5 nM and 25 nM) were subsequently dispensed into plates, using a multi-drop combi nL reagent dispenser (Thermo Scientific) and incubated with compounds for 1 h at 4 °C. The reaction was initiated by the addition of 20 μl of the premixed FRET pair of FITC-labeled PARP1 (42 nM) and Tb^3+-BRCT1 (5 nM), and the TR-FRET signal was monitored every 4 min for 40 min (11 data points). Hits were selected by visually comparing the rate of the TR-FRET signal decrease in each well to that of negative control reactions containing DMSO (Fig. 1b and see Text for details). The HTS was performed at the High-Throughput Screening Core (HTSC) at Washington University School of Medicine.
# [3] = target: T2, Human PARG (Homo sapiens, UniProt Q86W56); assay: Gel-based PARG activity assay; assay type: biochemical; conditions: for IC50: hPARG 1 nM, PARylated PARP1C 500 nM, 30 min; for inhibition at 0.0488281 µM: [L] 0.0488281 uM; for inhibition at 0.0976562 µM: [L] 0.0976562 uM; for inhibition at 0.195312 µM: [L] 0.195312 uM; for inhibition at 0.390625 µM: [L] 0.390625 uM; for inhibition at 0.78125 µM: [L] 0.78125 uM; for inhibition at 1.5625 µM: [L] 1.5625 uM; for inhibition at 3.125 µM: [L] 3.125 uM; for inhibition at 6.25 µM: [L] 6.25 uM; for inhibition at 12.5 µM: [L] 12.5 uM; for inhibition at 25 µM: [L] 25 uM; for inhibition at 50 µM: [L] 50 uM
# T2 construct: The human PARG (hPARG) catalytic domain (residues 389–976) was cloned in pET28a (Novagen); His-tag (N); made in house; host or cells: E. coli Rosetta
# Protocol: PARP1C (2 μM) is enzymatically auto-modified in a reaction containing the PARP1 DBD (2 μM), a 24 mer nicked DNA oligo (2 μM), and NAD^+ (300 μM) for 1 h at 37 °C, as described previously. Human PARG^389–976 (1 nM) was pre-incubated with compounds for 1 h at room temperature. The reaction was initiated by the addition of PARylated PARP1 (final concentration of 500 nM) and quenched after 30 min incubation at room temperature by adding SDS-PAGE sample buffer. The gel was visualized by sypro-ruby staining[18] and the retained PARylated PARP1C species were quantified using ImageJ[59]. PARylated PARP1C that migrates slower than unmodified PARP1C was quantified. […] The IC50 values were determined by fitting the dose-response data for each compound to a four-parameter logistic equation using SigmaPlot (Systat Software Inc.).
# To test the specificity of JA2131, human PARG^389–976 (1 nM) was pre-incubated with JA2131 (5, 10, and 20 μM) in the presence and absence of 0.1% Triton-X 100 or 0.1 mg/ml BSA for 1 h at room temperature. The reaction was initiated, quenched, visualized, and quantified as described above. […]
# PARG activity assay. […]
# PARP1 (500 nM). The reaction was quenched after a 30 -minu te in cu ba tion a t roo m te mpe ra tu re by adding SDS-PA GE sa mp le bu f fe r. PARylated PARP1C runs as a smear on SDS -PAGE that is reduced to a single band by PARG treatment. […]
# 2). (b) Qu an t if ica t ion o f the dose-response PARG inhibition by JA2 -3 using the gel-based PARG activity assay. hPARG (1 nM) was preincubated with increasing concentrations (0.032 – 1 µM) of JA2-3 f o r 1 hour at room temperature before PARylated PARP1C (500 nM) was added. The reaction was quenched after a 30-minu te incubation at room temperature. PARylated PARP1C migrates slower than unmodified PARP1C and was quantified using ImageJ. […] The rate of the PARG-dependent signal loss in the TR-FRET PAR turnover assay is not equivalent to the steady-state rate of PAR turnover, because the TR-FRET assay can’t detect signal loss until the length of PAR chains become shorter than 7 ADP-ribose units. Therefore, we used the gel-based PARG activity assay to accurately determine the IC50 values throughout the manuscript .
# T1 sequence (Q9QYM2 385-972): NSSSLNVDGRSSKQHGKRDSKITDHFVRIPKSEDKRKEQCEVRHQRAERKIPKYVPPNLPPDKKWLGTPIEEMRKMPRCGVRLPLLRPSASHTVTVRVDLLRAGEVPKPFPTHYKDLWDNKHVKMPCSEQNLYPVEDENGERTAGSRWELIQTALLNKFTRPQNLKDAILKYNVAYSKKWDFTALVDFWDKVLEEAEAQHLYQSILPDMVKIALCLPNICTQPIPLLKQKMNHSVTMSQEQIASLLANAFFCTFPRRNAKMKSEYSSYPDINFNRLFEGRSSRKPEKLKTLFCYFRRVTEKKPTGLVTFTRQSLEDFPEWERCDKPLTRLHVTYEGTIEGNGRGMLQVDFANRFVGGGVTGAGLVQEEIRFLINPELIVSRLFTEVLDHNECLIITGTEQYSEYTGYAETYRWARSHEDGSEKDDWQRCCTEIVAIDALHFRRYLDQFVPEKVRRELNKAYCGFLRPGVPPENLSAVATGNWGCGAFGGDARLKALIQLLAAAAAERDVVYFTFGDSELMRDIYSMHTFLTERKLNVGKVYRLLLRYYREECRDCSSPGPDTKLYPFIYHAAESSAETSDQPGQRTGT
# T2 sequence (Q86W56 389-976): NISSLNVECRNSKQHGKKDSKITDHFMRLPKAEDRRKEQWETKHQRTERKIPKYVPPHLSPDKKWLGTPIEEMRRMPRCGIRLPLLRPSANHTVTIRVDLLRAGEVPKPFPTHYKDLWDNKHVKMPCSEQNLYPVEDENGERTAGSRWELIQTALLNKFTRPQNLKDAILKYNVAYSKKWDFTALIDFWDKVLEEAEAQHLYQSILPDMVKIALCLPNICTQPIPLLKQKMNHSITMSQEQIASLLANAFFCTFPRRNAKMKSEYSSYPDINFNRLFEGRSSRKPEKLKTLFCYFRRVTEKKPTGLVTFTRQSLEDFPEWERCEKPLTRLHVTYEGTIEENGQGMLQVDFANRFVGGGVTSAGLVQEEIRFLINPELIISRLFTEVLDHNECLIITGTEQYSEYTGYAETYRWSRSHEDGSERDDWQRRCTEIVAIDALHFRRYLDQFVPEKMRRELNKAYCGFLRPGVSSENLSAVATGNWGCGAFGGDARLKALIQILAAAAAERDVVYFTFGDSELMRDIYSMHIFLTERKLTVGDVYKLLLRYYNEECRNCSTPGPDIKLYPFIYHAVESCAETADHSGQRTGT
smiles,measurement,setting,value
NC(=O)NO [Hydroxyurea],IC50,[1],381000 ± 117000 nM
CCCOCN1C(=O)C=CC1=O [JA1-1],IC50,[2],1000 to 2000 nM
O=C1C=CC(=Nc2cccc3c(N=C4C=CC(=O)O4)cccc23)O1 [JA1-3],IC50,[2],~400 nM
O=c1[nH]c2[nH]c(=S)[nH]c(=S)c2[nH]1 [JA2-3],TR-FRET,"[2]; 12.5 nM PARG, 0 min",1.1077
same,TR-FRET,"[2]; 12.5 nM PARG, 4 min",1.1706
same,TR-FRET,"[2]; 12.5 nM PARG, 8 min",1.1753
same,TR-FRET,"[2]; 12.5 nM PARG, 12 min",1.0984
same,TR-FRET,"[2]; 12.5 nM PARG, 16 min",1.1414
same,TR-FRET,"[2]; 12.5 nM PARG, 20 min",1.0328
same,TR-FRET,"[2]; 12.5 nM PARG, 24 min",0.9368
same,TR-FRET,"[2]; 12.5 nM PARG, 28 min",0.9375
same,TR-FRET,"[2]; 12.5 nM PARG, 32 min",0.9636
same,TR-FRET,"[2]; 12.5 nM PARG, 36 min",0.9240
same,TR-FRET,"[2]; 12.5 nM PARG, 40 min",0.9660
same,TR-FRET,"[2]; 25 nM PARG, 0 min",1.1716
same,TR-FRET,"[2]; 25 nM PARG, 4 min",1.2418
same,TR-FRET,"[2]; 25 nM PARG, 8 min",1.1876
same,TR-FRET,"[2]; 25 nM PARG, 12 min",1.1061
same,TR-FRET,"[2]; 25 nM PARG, 16 min",1.0537
same,TR-FRET,"[2]; 25 nM PARG, 20 min",1.0170
same,TR-FRET,"[2]; 25 nM PARG, 24 min",0.9403
same,TR-FRET,"[2]; 25 nM PARG, 28 min",0.9903
same,TR-FRET,"[2]; 25 nM PARG, 32 min",1.0366
same,TR-FRET,"[2]; 25 nM PARG, 36 min",0.9358
same,TR-FRET,"[2]; 25 nM PARG, 40 min",1.0455
same,inhibition at 0.0001 µM,"[3]; 0.5 h, [L] 1.00E-04 uM",0%
same,inhibition at 0.03125 µM,[3]; [L] 0.03125 uM,17%
same,inhibition at 0.0625 µM,[3]; [L] 0.0625 uM,35.9%
same,inhibition at 0.125 µM,[3]; [L] 0.125 uM,56.7%
same,inhibition at 0.25 µM,[3]; [L] 0.25 uM,74.4%
same,inhibition at 0.5 µM,[3]; [L] 0.5 uM,88%
same,inhibition at 1 µM,[3]; [L] 1 uM,103%
same,IC50,[3],100 nM
Cn1c(=S)c2nc(SCCN3CCCC3)[nH]c2n(C)c1=O [JA2-4],inhibition at 0.0488281 µM,[3],2.01%
same,inhibition at 0.0976562 µM,[3],4.3%
same,inhibition at 0.195312 µM,[3],25.2%
same,inhibition at 0.390625 µM,[3],34.9%
same,inhibition at 0.78125 µM,[3],48.4%
same,inhibition at 1.5625 µM,[3],67%
same,inhibition at 3.125 µM,[3],70.1%
same,inhibition at 6.25 µM,[3],78.4%
same,inhibition at 12.5 µM,[3],87.5%
same,inhibition at 25 µM,[3],93.6%
same,inhibition at 50 µM,[3],100%
same,IC50,[3],900 nM
Cn1c(=O)c2[nH]c(SCCN3CCOCC3)nc2n(C)c1=S [JA2-5],inhibition at 0.0488281 µM,[3],6.3%
same,inhibition at 0.0976562 µM,[3],19.6%
same,inhibition at 0.195312 µM,[3],28.3%
same,inhibition at 0.390625 µM,[3],27.3%
same,inhibition at 0.78125 µM,[3],35.2%
same,inhibition at 1.5625 µM,[3],71%
same,inhibition at 3.125 µM,[3],81.9%
same,inhibition at 6.25 µM,[3],87.9%
same,inhibition at 12.5 µM,[3],89.1%
same,inhibition at 25 µM,[3],99.8%
same,inhibition at 50 µM,[3],104%
same,IC50,[3],1000 nM
Cn1c(=O)c2[nH]c(SCCN3CCOCC3)nc2n(C)c1=O [JA2120],potency difference JA2131 (6´-thiocarbonyl) vs JA2120 (6´-carbonyl),[3],more than 50 fold
same,inhibition at 0.0488281 µM,[3],6.05%
same,inhibition at 0.0976562 µM,[3],5.87%
same,inhibition at 0.195312 µM,[3],7.21%
same,inhibition at 0.390625 µM,[3],10.4%
same,inhibition at 0.78125 µM,[3],16.2%
same,inhibition at 1.5625 µM,[3],24.6%
same,inhibition at 3.125 µM,[3],25.7%
same,inhibition at 6.25 µM,[3],24.7%
same,inhibition at 12.5 µM,[3],33.9%
same,inhibition at 25 µM,[3],45.5%
same,inhibition at 50 µM,[3],67%
same,inhibition at 100 µM,[3]; [L] 100 uM,88.3%
same,IC50,[3],25700 nM
